Measurements from patent US10226448B2, “3-(1H-pyrrolo[3,2-C]pyridin-2-yl)-1H-pyrazolo[3,4-B]pyridines and therapeutic uses thereof” (Samumed, LLC, priority 2015, dated 2019).

Experiments:
Assay type in all cases: cell-based
[1] = system: LL29 cells (primary human fibroblasts derived from IPF patients), α-smooth muscle actin; assay: Inhibition of the fibrotic process: αSMA staining in TGF-β1 treated primary human fibroblasts from IPF patients (LL29 cells); conditions: Fibroblast; for EC50: 96 h, LL29 cells, TGF-β1 20 ng/mL, 4 days, % αSMA positive cells; for inhibition at 10 µM: read-out: percent inhibition at 10 μM
Description: Representative compounds were screened using primary human fibroblasts (derived from IPF patients) treated with TGF-β1 to determine their ability to inhibit the fibrotic process.
LL29 cells are plated at 1,500 cells/well in 80 μL/well F12 medium supplemented with 1% Fetal Bovine Serum. […] Wells treated with TGF-β1 and containing DMSO were used as controls. […] Following incubation for 4 days, SYTOX green nucleic acid stain (Life Technologies [Thermo Fisher Scientific]) was added to the wells at a final concentration of 1 μM and incubated at room temperature for 30 min.

[2] = system: primary human mesenchymal stem cells (hMSCs); assay: Induction of chondrogenesis in primary human mesenchymal stem cells (chondrogenic nodules, Rhodamine B / Nile Red); conditions: 6 days; for Emax: relative to TGF-β3 (10 ng/mL) positive control, read-out: Max. Activity as % TGF-β3 activity
Text: Representative compounds were screened using primary human mesenchymal stem cells (hMSCs) to determine their ability to induce chondrogenesis (process by which cartilage is developed).
Human Mesenchymal Stem Cell Culture: Primary human mesenchymal stem cells (hMSCs) were purchased from Lonza (Walkersville, Md.) and expanded in Mesenchymal Stem Cell Growth Media (Lonza). Cells between passage 3 and 6 were used for the experiments.
To image chondrogenic nodules, the cells were fixed using 4% formaldehyde (Electron Microscopy Sciences), and stained with 2 μg/mL Rhodamine B (Sigma-Aldrich) and 20 μM Nile Red (Sigma-Aldrich) [Johnson K., et. al, A Stem Cell-Based Approach to Cartilage Repair, Science, (2012). […] Number of nodules in each well was normalized to the average of 3 DMSO treated wells on the same plate using Excel (Microsoft Inc.). The normalized averages (fold change over DMSO) of 3 replicate wells for each compound concentration were calculated. Due to solubility limitations of some of the compounds, curve fitting was incomplete leading to inaccurate EC50 determinations.
Using TGF-β3 as a positive control, the concentration of representative compounds required to induce 50% levels of chondrogenesis is reported. In addition, the maximum activity of each compound and the respective dose that each compound reached maximum chondrogenesis activity is reported.

[3] = system: Wnt activity (Sp5-Luc reporter, TCF/LEF binding sites) in SW480 colon carcinoma cells; assay: Wnt activity screening assay: Sp5-Luc reporter gene assay in SW480 cells; conditions: Homo sapiens; for EC50: Sp5-Luc reporter, SW480 cells, overnight incubation
Text: The screening assay for Wnt activity is described as follows. Reporter cell lines can be generated by stably transducing cancer cell lines (e.g., colon cancer) or primary cells (e.g., IEC-6 intestinal cells) with a lentiviral construct that includes a Wnt-responsive promoter driving expression of the firefly luciferase gene.
SW480 colon carcinoma cells were transduced with a lentiviral vector expressing luciferase with a human Sp5 promoter consisting of a sequence of eight TCF/LEF binding sites. SW480 cells stably expressing the Sp5-Luc reporter gene and a hygromycin resistance gene were selected by treatment with 150 μg/mL of hygromycin for 7 days. These stably transduced SW480 cells were expanded in cell culture and used for all further screening activities. […] For Sp5-Luc reporter gene assays, the cells were plated at 4,000 cells/well in 384-well plates with medium containing 1% fetal bovine serum and incubated overnight at 37° C. and 5% CO2. Following incubation, 20 μl of BrightGlo luminescence reagent (Promega) was added to each well of the 384-well assay plates. The plates were placed on an orbital shaker for 2 min and then luminescence was quantified using the Envision (Perkin Elmer) plate reader. Readings were normalized to DMSO only treated cells, and normalized activities were utilized for EC50 calculations using the dose-response log (inhibitor) vs. response variable slope (four parameters) nonlinear regression feature available in GraphPad Prism 5.0 (or Dotmatics).

IL-6 in THP-1 cells = assay: IL-6 inhibition in LPS-stimulated THP-1 human monocyte cells (HTRF); conditions: for EC50: IL-6 inhibition, LPS-stimulated THP-1 cells, HTRF, 10-point dose-response starting from 10 μM; for inhibition at 10 µM: THP-1, read-out: percentage in parentheses beside EC50 >10
Description: Compound Screening: THP-1 cells were cultured in basal media with 1% FBS for 24 hours before the start of the assay. […] THP-1 cells were plated at 5000 cells/well in the 384-well plates and incubated at 37° C. for 2 h. 500 ng/mL of LPS was added after 2 hours and cells were incubated for another 22 hours at 37° C. Plates were spun in a centrifuge for 1 minute at […] and a mixture of anti-IL6 XL665, and anti-IL6 Cryptate diluted in reconstitution buffer (Cisbio Inc.) was added to each well. Following incubation for 3 hrs at room temperature, Homogeneous Time-Resolved Fluorescence (HTRF) was measured using the Envision (Perkin Elmer) at 665 nm and […]. The ratio of fluorescence at 665 nm to 620 nm was used as a readout for IL6 quantification. All samples were processed in duplicate. Readings were normalized to DMSO treated cells and normalized activities were utilized for EC50 calculations using the dose-response log (inhibitor) vs. response variable slope (four parameters) nonlinear regression feature available in GraphPad Prism 5.0 (or Dotmatics).

SW480 colon cancer cells = assay: Cell viability assay (CellTiter-Blue) in SW480 colon cancer cells; conditions: Homo sapiens; for EC50: 96 h, SW480 cell viability, four days, CellTiter-Blue; for inhibition at 10 µM: SW480, read-out: percent inhibition at 10 μM
Description: Representative compounds were screened using the following assay procedure to assess the effect on cell viability as described below.
Approximately 2×10^3 SW480 colon cancer cells were seeded into each well and allowed to incubate in the presence or absence of compound for four days at 37° C./5% CO2. Eight replicates of DMSO-treated cells served as controls and cells treated with compound were performed in duplicate.
After incubation, 20 μL of CellTiter-Blue (Promega) was added to each well allowed to incubate for approximately 3 hours. This reagent was a buffered solution which contains resazurin, metabolically active cells were able to reduce rezarurin (blue) into resorufin (pink) which was highly fluorescent. This measured fluorescence was used as a readout for cell viability.

Row | SMILES | EC50 [1] | inhibition at 10 µM [1] | EC50 ([2]; concentration required to induce 50% levels of chondrogenesis vs TGF-β3, read-out: Conc (nM) of 50% TGF-β3 activity) | Emax [2] | inhibition at 10 µM ([3]; SW480, read-out: percent inhibition at 10 μM) | EC50 [3] | EC50 (IL-6 in THP-1 cells) | inhibition at 10 µM (IL-6 in THP-1 cells) | EC50 (SW480 colon cancer cells) | inhibition at 10 µM (SW480 colon cancer cells)
1 | O=C(Nc1cncc(-c2cnc3[nH]nc(-c4cc5cnccc5[nH]4)c3c2)c1)c1ccccc1 [Compound 263, N-(5-(3-(1H-Pyrrolo[3,2-c]pyridin-2-yl)-1H-pyrazolo[3,4-b]pyridin-5-yl)pyridin-3-yl)benzamide] | > 10 µM | 0% | 30 nM | 70% | 65.5% | > 10 µM | > 10 µM | 30% | > 10 µM | 24.6%
2 | Fc1ccccc1-c1nccc2[nH]c(-c3n[nH]c4ncc(-c5cncnc5)cc34)cc12 [Compound 83, 3-(4-(2-Fluorophenyl)-1H-pyrrolo[3,2-c]pyridin-2-yl)-5-(pyrimidin-5-yl)-1H-pyrazolo[3,4-b]pyridine] | 1.21 µM |  |  | 36% |  | 4.06 µM | > 10 µM | 28.3% | 2.08 µM | 
3 | O=C(Nc1cncc(-c2cnc3[nH]nc(-c4cc5c(N6CCCCC6)nccc5[nH]4)c3c2)c1)C1CC1 [Compound 188, N-(5-(3-(4-(Piperidin-1-yl)-1H-pyrrolo[3,2-c]pyridin-2-yl)-1H-pyrazolo[3,4-b]pyridin-5-yl)pyridin-3-yl)cyclopropanecarboxamide] | > 10 µM | 0% |  | 42% |  | 3.85 µM | 2.54 µM |  | 6.71 µM | 
4 | CS(=O)(=O)NCc1cc(F)cc(-c2nccc3[nH]c(-c4n[nH]c5ncc(-c6cncc(OCc7ccccc7)c6)cc45)cc23)c1 [Compound 774, N-(3-(2-(5-(5-(Benzyloxy)pyridin-3-yl)-1H-pyrazolo[3,4-b]pyridin-3-yl)-1H-pyrrolo[3,2-c]pyridin-4-yl)-5-fluorobenzyl)methanesulfonamide] | 2.16 µM |  |  | 21% |  | 6.86 µM | > 10 µM | 48.3% | > 10 µM | 30.2%
5 | c1cncc(-c2cnc3[nH]nc(-c4cc5cnccc5[nH]4)c3c2)c1 [Compound 256, 5-(Pyridin-3-yl)-3-(1H-pyrrolo[3,2-c]pyridin-2-yl)-1H-pyrazolo[3,4-b]pyridine] | 0.2 µM |  |  | 54% |  | 0.251 µM | 0.218 µM |  | 0.356 µM | 
6 | CCCCC(=O)Nc1cncc(-c2cnc3[nH]nc(-c4cc5cnccc5[nH]4)c3c2)c1 [Compound 271, N-(5-(3-(1H-Pyrrolo[3,2-c]pyridin-2-yl)-1H-pyrazolo[3,4-b]pyridin-5-yl)pyridin-3-yl)pentanamide] | 4.1 µM |  |  | 31% |  | 1.47 µM | 2.86 µM |  | 4.03 µM | 
7 | CC(C)Nc1cncc(-c2cnc3[nH]nc(-c4cc5c(N6CCCCC6)nccc5[nH]4)c3c2)c1 [Compound 180, N-Isopropyl-5-(3-(4-(piperidin-1-yl)-1H-pyrrolo[3,2-c]pyridin-2-yl)-1H-pyrazolo[3,4-b]pyridin-5-yl)pyridin-3-amine] | 0.247 µM |  |  | 34% |  | 3.41 µM | 2.13 µM |  | 3.7 µM | 
8 | O=C(Nc1cncc(-c2cnc3[nH]nc(-c4cc5cnccc5[nH]4)c3c2)c1)C1CCCCC1 [Compound 275, N-(5-(3-(1H-Pyrrolo[3,2-c]pyridin-2-yl)-1H-pyrazolo[3,4-b]pyridin-5-yl)pyridin-3-yl)cyclohexanecarboxamide] | 1.38 µM |  |  | 9% |  | 1.4 µM | 0.447 µM |  | 1.52 µM | 
9 | CC(C)(C)C(=O)Nc1cncc(-c2cnc3[nH]nc(-c4cc5c(-c6ccc(F)cc6)nccc5[nH]4)c3c2)c1 [Compound 36, N-(5-(3-(4-(4-Fluorophenyl)-1H-pyrrolo[3,2-c]pyridin-2-yl)-1H-pyrazolo[3,4-b]pyridin-5-yl)pyridin-3-yl)pivalamide] | 0.579 µM |  |  | 44% |  | 0.98 µM | 3.23 µM |  | 0.553 µM | 
